Legend:
Type in all cases: functional
Rattus norvegicus [1] = organism: Rattus norvegicus; assay: Membrane potential change (fluorescence-based in vitro assay using DIBAC4 as indicator) in A-10 smooth muscle cell, to estimate potassium channel opening activity at 1 uM
Rattus norvegicus [2] = organism: Rattus norvegicus; assay: Membrane potential change (fluorescence-based in vitro assay using DIBAC4 as indicator) in A-10 smooth muscle cell, to estimate potassium channel opening activity at 0.1 uM
Rattus norvegicus [3] = organism: Rattus norvegicus; assay: Membrane potential change (fluorescence-based in vitro assay using DIBAC4 as indicator) in A-10 smooth muscle cell, to estimate potassium channel opening activity at 10 uM

## [O-][s+]1nc(Nc2cc(Cl)cc(Cl)c2)c(NC2CCC2)n1 (stereo unspecified)
Rattus norvegicus [1]
  Change: -4.23%
Rattus norvegicus [2]
  Change: -5.89%
Rattus norvegicus [3]
  Change: -21.8%

## Nc1n[s+]([O-])nc1Nc1cc(Cl)cc(Cl)c1 (stereo unspecified)
Rattus norvegicus [1]
  Change: -4.81%
Rattus norvegicus [2]
  Change: 10.2%
Rattus norvegicus [3]
  Change: -4.58%

## CCCNc1n[s+]([O-])nc1Nc1cc(Cl)cc(Cl)c1 (stereo unspecified)
Rattus norvegicus [1]
  Change: 5.85%
Rattus norvegicus [2]
  Change: 8.06%
Rattus norvegicus [3]
  Change: -11.1%

## CCCCCNc1n[s+]([O-])nc1Nc1ccccc1 (stereo unspecified)
Rattus norvegicus [1]
  Change: -7.68%
Rattus norvegicus [2]
  Change: -3.76%
Rattus norvegicus [3]
  Change: -5.23%

## [O-][s+]1nc(Nc2cc(Cl)cc(Cl)c2)c(NC2CCCCC2)n1 (stereo unspecified)
Rattus norvegicus [1]
  Change: -2.39%
Rattus norvegicus [2]
  Change: 2.05%
Rattus norvegicus [3]
  Change: -17.7%

## [O-][s+]1nc(NCCc2ccccc2)c(Nc2cc(Cl)cc(Cl)c2)n1 (stereo unspecified)
Rattus norvegicus [1]
  Change: -1.29%
Rattus norvegicus [2]
  Change: -1.01%

## CCCCNc1n[s+]([O-])nc1Nc1cc(Cl)cc(Cl)c1 (stereo unspecified)
Rattus norvegicus [1]
  Change: -10.3%
Rattus norvegicus [2]
  Change: 1.29%
Rattus norvegicus [3]
  Change: -44.7%

## CCCCCNc1n[s+]([O-])nc1Nc1cc(Cl)cc(Cl)c1 (stereo unspecified)
Rattus norvegicus [1]
  Change: -10.6%
Rattus norvegicus [2]
  Change: 8.48%
Rattus norvegicus [3]
  Change: -26.3%

## [O-][s+]1nc(Nc2cc(Cl)cc(Cl)c2)c(NC2CC2)n1 (stereo unspecified)
Rattus norvegicus [1]
  Change: -1.1%
Rattus norvegicus [2]
  Change: 0.95%
Rattus norvegicus [3]
  Change: -3.96%

## [O-][s+]1nc(NCCCc2ccccc2)c(Nc2cc(Cl)cc(Cl)c2)n1 (stereo unspecified)
Rattus norvegicus [1]
  Change: -19.7%
Rattus norvegicus [3]
  Change: 14.1%

## [O-][s+]1nc(Nc2cc(Cl)cc(Cl)c2)c(NC2CCCC2)n1 (stereo unspecified)
Rattus norvegicus [1]
  Change: -1.36%
Rattus norvegicus [2]
  Change: -5.82%
Rattus norvegicus [3]
  Change: -4.17%

## CCC(C)Nc1n[s+]([O-])nc1Nc1cc(Cl)cc(Cl)c1 (stereo unspecified)
Rattus norvegicus [1]
  Change: 1.42%
Rattus norvegicus [2]
  Change: -0.43%
Rattus norvegicus [3]
  Change: -19%

## CCCNc1n[s+]([O-])nc1Nc1ccccc1 (stereo unspecified)
Rattus norvegicus [1]
  Change: -4.86%
Rattus norvegicus [2]
  Change: -3.75%
Rattus norvegicus [3]
  Change: -1.05%

## [O-][s+]1nc(NCc2ccccc2)c(Nc2cc(Cl)cc(Cl)c2)n1 (stereo unspecified)
Rattus norvegicus [1]
  Change: -0.91%
Rattus norvegicus [2]
  Change: 7.83%
Rattus norvegicus [3]
  Change: 0.84%

## CC(C)Nc1n[s+]([O-])nc1Nc1cc(Cl)cc(Cl)c1 (stereo unspecified)
Rattus norvegicus [1]
  Change: -5.37%
Rattus norvegicus [2]
  Change: 2.12%
Rattus norvegicus [3]
  Change: -9.36%

## CC(C)(C)CNc1n[s+]([O-])nc1Nc1cc(Cl)cc(Cl)c1 (stereo unspecified)
Rattus norvegicus [1]
  Change: 5.58%
Rattus norvegicus [2]
  Change: 1.77%
Rattus norvegicus [3]
  Change: 1.84%

## CNc1n[s+]([O-])nc1Nc1cc(Cl)cc(Cl)c1 (stereo unspecified)
Rattus norvegicus [1]
  Change: -25.1%
Rattus norvegicus [2]
  Change: -16%
Rattus norvegicus [3]
  Change: -33.6%

## CC(C)CCNc1n[s+]([O-])nc1Nc1cc(Cl)cc(Cl)c1 (stereo unspecified)
Rattus norvegicus [1]
  Change: -12%
Rattus norvegicus [2]
  Change: 10.7%
Rattus norvegicus [3]
  Change: -45.5%

## CC(C)CNc1n[s+]([O-])nc1Nc1cc(Cl)cc(Cl)c1 (stereo unspecified)
Rattus norvegicus [1]
  Change: -3.59%
Rattus norvegicus [2]
  Change: -1.32%
Rattus norvegicus [3]
  Change: 10.8%

## CC(N/C(=N\C#N)Nc1ccncc1)C(C)(C)C (stereo unspecified)
Rattus norvegicus [1]
  Change: -45.6%
Rattus norvegicus [2]
  Change: -5.89%
Rattus norvegicus [3]
  Change: -57.4%

## [O-][s+]1nc(NCCCCc2ccccc2)c(Nc2cc(Cl)cc(Cl)c2)n1 (stereo unspecified)
Rattus norvegicus [1]
  Change: -6.18%
Rattus norvegicus [2]
  Change: -7.2%
Rattus norvegicus [3]
  Change: 4.02%
